Laboratory results as given in PubChem BioAssay AID1745844 (Carcinogenic Potency Database (CPDB), 2022).

System: rodent lifetime carcinogenesis bioassay, tumor incidence TD50
Assay: chronic cancer bioassays in animals – CPDB, compiled studies (AID 1745844)
Conditions: mouse, strain B6C3F1, males, inhaled

C=CC=C
TD50 (site: all sites, lesion: malignant lymphoma, mixed type + malignant lymphoma, lymphocytic type + malignant lymphoma, dosed 26 weeks, study length 104 weeks): 31.3 mg/kg/day
TD50 (site: all sites, lesion: malignant lymphoma, mixed type + malignant lymphoma, lymphocytic type + malignant lymphoma, dosed 40 weeks, study length 104 weeks): 108 mg/kg/day
TD50 (site: all sites, lesion: malignant lymphoma, mixed type + malignant lymphoma, lymphocytic type + malignant lymphoma, dosed 52 weeks, study length 104 weeks): 46.4 mg/kg/day
TD50 (site: all sites, lesion: malignant lymphoma, mixed type + malignant lymphoma, dosed 13 weeks, study length 104 weeks): 78.1 mg/kg/day
TD50 (site: all sites, lesion: malignant lymphoma, mixed type + malignant lymphoma, dosed 26 weeks, study length 104 weeks): 111 mg/kg/day
TD50 (site: all sites, lesion: malignant lymphoma, mixed type + malignant lymphoma, dosed 40 weeks, study length 104 weeks): 487 mg/kg/day
TD50 (site: all sites, lesion: malignant lymphoma, mixed type + malignant lymphoma, dosed 52 weeks, study length 104 weeks): 76.2 mg/kg/day
TD50 (site: any site (literature study), lesion: several types, types named in the paper, dosed 13 weeks, study length 104 weeks): 6.92 mg/kg/day
TD50 (site: any site (literature study), lesion: several types, types named in the paper, dosed 26 weeks, study length 104 weeks): 12.5 mg/kg/day
TD50 (site: any site (literature study), lesion: several types, types named in the paper, dosed 40 weeks, study length 104 weeks): 10.8 mg/kg/day
TD50 (site: any site (literature study), lesion: several types, types named in the paper, dosed 52 weeks, study length 104 weeks): 5.84 mg/kg/day
TD50 (site: any site (literature study), lesion: several types, types named in the paper, dosed 60 weeks, study length 60 weeks): 28.8 mg/kg/day
TD50 (site: any site (literature study), lesion: several types, types named in the paper, dosed 82 weeks, study length 104 weeks): 10.5 mg/kg/day
TD50 (site: brain, lesion: olfactory lobe, glioma malignant, dosed 13 weeks, study length 104 weeks): 230 mg/kg/day
TD50 (site: brain, lesion: olfactory lobe, glioma malignant, dosed 26 weeks, study length 104 weeks): 403 mg/kg/day
TD50 (site: brain, lesion: olfactory lobe, neuroblastoma malignant, dosed 13 weeks, study length 104 weeks): 394 mg/kg/day
TD50 (site: forestomach, lesion: papilloma, NOS + squamous-cell carcinoma + squamous-cell papilloma, dosed 60 weeks, study length 60 weeks): 120 mg/kg/day
TD50 (site: forestomach, lesion: papilloma, NOS + squamous-cell papilloma, dosed 60 weeks, study length 60 weeks): 140 mg/kg/day
TD50 (site: forestomach, lesion: squamous-cell carcinoma + squamous-cell papilloma, dosed 13 weeks, study length 104 weeks): 44.8 mg/kg/day
TD50 (site: forestomach, lesion: squamous-cell carcinoma + squamous-cell papilloma, dosed 26 weeks, study length 104 weeks): 91.4 mg/kg/day
TD50 (site: forestomach, lesion: squamous-cell carcinoma + squamous-cell papilloma, dosed 40 weeks, study length 104 weeks): 171 mg/kg/day
TD50 (site: forestomach, lesion: squamous-cell carcinoma + squamous-cell papilloma, dosed 52 weeks, study length 104 weeks): 42.8 mg/kg/day
TD50 (site: forestomach, lesion: squamous-cell carcinoma + squamous-cell papilloma, dosed 60 weeks, study length 60 weeks): 557 mg/kg/day
TD50 (site: forestomach, lesion: squamous-cell carcinoma + squamous-cell papilloma, dosed 82 weeks, study length 104 weeks): 197 mg/kg/day
TD50 (site: forestomach, lesion: squamous-cell carcinoma, dosed 13 weeks, study length 104 weeks): 43.4 mg/kg/day
TD50 (site: forestomach, lesion: squamous-cell carcinoma, dosed 26 weeks, study length 104 weeks): 136 mg/kg/day
TD50 (site: forestomach, lesion: squamous-cell carcinoma, dosed 52 weeks, study length 104 weeks): 154 mg/kg/day
TD50 (site: forestomach, lesion: squamous-cell papilloma, dosed 13 weeks, study length 104 weeks): 117 mg/kg/day
TD50 (site: forestomach, lesion: squamous-cell papilloma, dosed 26 weeks, study length 104 weeks): 284 mg/kg/day
TD50 (site: forestomach, lesion: squamous-cell papilloma, dosed 40 weeks, study length 104 weeks): 171 mg/kg/day
TD50 (site: forestomach, lesion: squamous-cell papilloma, dosed 52 weeks, study length 104 weeks): 77.7 mg/kg/day
TD50 (site: forestomach, lesion: squamous-cell papilloma, dosed 82 weeks, study length 104 weeks): 230 mg/kg/day
TD50 (site: heart + peritoneal cavity, lesion: hemangiosarcoma, dosed 60 weeks, study length 60 weeks): 96.7 mg/kg/day
TD50 (site: heart, lesion: hemangiosarcoma, dosed 13 weeks, study length 104 weeks): 32.6 mg/kg/day
TD50 (site: heart, lesion: hemangiosarcoma, dosed 26 weeks, study length 104 weeks): 18.5 mg/kg/day
TD50 (site: heart, lesion: hemangiosarcoma, dosed 40 weeks, study length 104 weeks): 21.9 mg/kg/day
TD50 (site: heart, lesion: hemangiosarcoma, dosed 52 weeks, study length 104 weeks): 13.9 mg/kg/day
TD50 (site: heart, lesion: hemangiosarcoma, dosed 60 weeks, study length 60 weeks): 96.7 mg/kg/day
TD50 (site: heart, lesion: hemangiosarcoma, dosed 82 weeks, study length 104 weeks): 64.8 mg/kg/day
TD50 (site: jejunum, lesion: carcinoma, dosed 82 weeks, study length 104 weeks): 310 mg/kg/day
TD50 (site: kidney, lesion: adenoma + tubule adenoma, dosed 52 weeks, study length 104 weeks): 190 mg/kg/day
TD50 (site: kidney, lesion: tubule adenoma, dosed 13 weeks, study length 104 weeks): 201 mg/kg/day
TD50 (site: kidney, lesion: tubule adenoma, dosed 26 weeks, study length 104 weeks): 961 mg/kg/day
TD50 (site: kidney, lesion: tubule adenoma, dosed 40 weeks, study length 104 weeks): 161 mg/kg/day
TD50 (site: kidney, lesion: tubule adenoma, dosed 82 weeks, study length 104 weeks): 268 mg/kg/day
TD50 (site: liver, lesion: hepatoblastoma + hepatocellular carcinoma, dosed 13 weeks, study length 104 weeks): 23.4 mg/kg/day
TD50 (site: liver, lesion: hepatoblastoma + hepatocellular carcinoma, dosed 26 weeks, study length 104 weeks): 60 mg/kg/day
TD50 (site: liver, lesion: hepatoblastoma + hepatocellular carcinoma, dosed 52 weeks, study length 104 weeks): 41.4 mg/kg/day
TD50 (site: liver, lesion: hepatocellular adenoma + hepatoblastoma + hepatocellular carcinoma, dosed 13 weeks, study length 104 weeks): 15.1 mg/kg/day
TD50 (site: liver, lesion: hepatocellular adenoma + hepatoblastoma + hepatocellular carcinoma, dosed 26 weeks, study length 104 weeks): 23.8 mg/kg/day
TD50 (site: liver, lesion: hepatocellular adenoma + hepatoblastoma + hepatocellular carcinoma, dosed 52 weeks, study length 104 weeks): 13.8 mg/kg/day
TD50 (site: liver, lesion: hepatocellular adenoma + hepatocellular carcinoma + neoplastic nodule, dosed 13 weeks, study length 104 weeks): 15.1 mg/kg/day
TD50 (site: liver, lesion: hepatocellular adenoma + hepatocellular carcinoma + neoplastic nodule, dosed 26 weeks, study length 104 weeks): 23.8 mg/kg/day
TD50 (site: liver, lesion: hepatocellular adenoma + hepatocellular carcinoma + neoplastic nodule, dosed 40 weeks, study length 104 weeks): 16.8 mg/kg/day
TD50 (site: liver, lesion: hepatocellular adenoma + hepatocellular carcinoma + neoplastic nodule, dosed 52 weeks, study length 104 weeks): 14.6 mg/kg/day
